Assay results from article PMC10182601, “Biological evaluation of novel gemcitabine analog in patient-derived xenograft models of pancreatic cancer” (BMC Cancer, 2023).

Key:
PPCL-46 cells = assay: Cell viability (resazurin/Alamar blue), PPCL-46; type: cell-based; details: Homo sapiens; 48 h treatment
Procedure: (§1) PCa primary cell were cultured with Dulbecco's modified Eagle medium (DMEM) with high glucose and L-glutamine and supplemented with 10% fetal bovine serum (FBS) and 1% penicillin–streptomycin (PenStrep). Briefly, PPCL-192, PPCL-135, PPCL-46, and PPCL-68 were seeded at a density of 1 × 10^3 per well in 96-well plates in triplicates for each drug concentration level and incubated at 5% CO2 and a temperature of 37 °C [32]. At 70 -75% confluency, PPCL-192, PPCL-135, PPCL-46, and PPCL-68 cells were treated with GemHCl, 4NSG-free SLN, and 4NSG-SLN. Varying concentrations of 4NSG-SLN and 4NSG-free SLN were prepared by diluting their stock solutions with a growth medium. For GemHCl, a stock solution was prepared with phosphate-buffered saline (PBS) and serially diluted with a growth medium to prepare different concentrations: 3, 6, 12, 25, 50, and 100 µM. The cells were treated with 100 µL of each drug concentration in triplicates and incubated for 48 h. At termination, 20 µL of 0.05% resazurin sodium salt (Alamar blue®) was added and incubated at optimum conditions (5% CO2, 37 °C) for 2–4 h. GloMax® Explorer Multimode Microplate reader with a fluorescence excitation wavelength of 560/580 nm and emission wavelength of 590/610 nm was used to determine the percent viable cells per concentration calculated.

[1] = background statement of the introduction, no reference printed with it; cited from earlier work
PPCL-135 cells = assay: Cell viability (resazurin/Alamar blue), PPCL-135; type: cell-based; details: Homo sapiens; 48 h treatment
Procedure: as §1

PPCL-68 cells = assay: Cell viability (resazurin/Alamar blue), PPCL-68; type: cell-based; details: Homo sapiens; 48 h treatment
Procedure: as §1

PPCL-192 cells = assay: Cell viability (resazurin/Alamar blue), PPCL-192; type: cell-based; details: Homo sapiens; 48 h treatment
Procedure: as §1

[2] = In vitro metabolic stability of 4NSG in human liver microsomes; type: in vitro ADME; details: 4NSG 10 µM, liver microsomes 1 mg protein/mL, 37 °C, end of the 4 h study
Procedure: (§2) The metabolic stability of 4NSG was examined in the presence of PBS (pH 7.4) and human liver microsomes as previously described. Human liver microsomes were obtained from Sigma-Aldrich. 4NSG (10 µM) was spiked into PBS, or liver microsomes (1 mg protein/mL) and incubated in a shaking water bath at 37 °C for […]. Aliquots (100 µL) were taken after 0, 15, 30, 60, 120, 180, 220 and 240 min of incubation and immediately pretreated with an ice-cold methanolic solution including the internal standard, vortexed for 3 min and centrifuged (12,000 × g, 10 min). Supernatants were stored at -80 C until required for analysis.
(§3) To determine concentrations of 4NSG in PBS and human liver microsomes solutions, supernatants from PBS and human liver microsomes controls were spiked with aliquots of 0.5 μg/ml of 4NSG. The chromatographic analysis was performed according to the method described with minor modifications. The samples were prepared using aliquots of supernatants (10µL) of control (spiked), PBS, and human liver microsomes. […] A plot of the peak areas as a function of 4NSG concentration was plotted, and the linear equation of the calibration curve given as y = mx + c was determined, where y is the peak area, m is the slope, x is the concentration of 4NSG, and c is the y—intercept.

[3] = system: pancreatic patient-derived xenograft (PDX) mouse model; set-up: method as in PMID 33015617; details: earlier work of the authors ref 22; cited from earlier work
[4] = Stability of 4NSG in PBS (pH 7.4); type: physicochemical; details: 4NSG 10 µM, PBS pH 7.4, 37 °C, end of the 4 h study
Procedure: as §2, §3

[5] = In vitro release of 4NSG (dialysis bag, PBS pH 7.4); type: physicochemical; details: PBS pH 7.4, 37 °C
Procedure: Cumulative in vitro drug release studies were performed as previously described. Free 4NSG (3 mg), freshly prepared and lyophilized 4NSG-SLNs containing approximately 5 mg (suspended in 2 mL PBS) were placed in dialysis bags with molecular weight cut-off (MWCO) of 3.5 kDa) and immersed in their respective labeled 15 mL PBS, (pH 7.4) as the release medium and incubated at 37 °C. The free 4NSG, freshly prepared and lyophilized 4NSG-SLNs solutions were gently stirred at 100 rpm 1 mL aliquots were withdrawn and replenished with fresh PBS (maintained at 37 °C) at 0, 1, 2, 4, 8, and 12 h for analysis. The samples were analyzed for the presence of 4NSG using the HPLC system previously described under the HPLC analysis of 4NSG of the in vitro metabolic stability of the 4NSG section.

Nc1ccn([C@@H]2O[C@H](CO)[C@@H](O)C2(F)F)c(=O)n1 [Gem, Gemcitabine]
IC50 (PPCL-46 cells): 56 ± 1.8 µM | plasma circulation half-life [1]: < 15 min | IC50 (PPCL-135 cells): 56 ± 1.5 µM | IC50 (PPCL-68 cells): 57 ± 2.4 µM | IC50 (PPCL-192 cells): 57 ± 1.5 µM

CCCCCCCCCCCCCCCCCC(=O)Nc1ccn([C@@H]2OC(CO)C(O)C2(F)F)c(=O)n1 (some centres unmarked) [4NSG, 4-(N)-stearoyl-gemcitabine]
percent unchanged 4NSG in human liver microsomal solution [2]: about 90% | morphological changes to mice's liver and kidney tissues [3]: no morphological changes | tumor growth in pancreatic PDX mouse model [3]: remarkably reduced tumor growth | metabolic stability of 4NSG in PBS [4]: 99% | further 4NSG release in the next 2 h ([5]; 2 h to 4 h, dialysis bag): 20% | cumulative 4NSG release within the first 2 h ([5]; dialysis bag MWCO 3.5 kDa): about 60%
